Measured values from US11247993B2, “Pyridone derivative, composition and use as antiviral drug thereof” (priority 2018, dated 2022).
Where two headings read alike, the source gives them in different places.

How the values were obtained:
[1] = tested on: influenza virus A/PR/8/34 (H1N1); assay: organism not typed; format: cell-based; conditions: 120 h
in vitro = format: cell-based; conditions: dog
Protocol: Method for cytotoxicity study: The cytotoxicity assay and antiviral activity assay of the compounds were performed in parallel, except for the absence of virus, other experimental conditions were consistent with the antiviral activity assay. After 5 days of culture, the cell viability was measured using the cell viability detection kit CCK8. Raw data were used for calculating compound cytotoxicity (CC50) (see Table 1 for results).

in vivo = assay: in vivo; parameters: species or system SD rats; conditions: SD, rat, iv, 0.25 mg/kg
Protocol: Intravenous injection: about 2 mg of Compound 11-5, Compound 11-6 and Compound 1-77 were accurately weighed out and added with appropriate amount of DMA, followed by vortex to a clean solution. An appropriate volume of 30% Solutol HS-15 aqueous solution and saline were added and vortexed, so that DMA: 30% Solutol HS-15: saline was 20:20:60 (v/v/v). The solution was filtered to give a 0.05 mg·mL^−1 pharmaceutical preparation. SD rats were given a single injection of 0.25 mg·kg^−1 of Compounds 11-5, 11-6 and 1-77 intravenously. 0.20 mL of blood was collected from the jugular vein before administration and 0.083 h, 0.25 h, 0.5 h, 1 h, 2 h, 4 h, 8 h, 12 h and 24 h after administration, and placed in an EDTA-K2 anticoagulation tube. 150 μL of whole blood was accurately pipetted immediately, and added into a test tube to which 450 μL of acetonitrile has been added to precipitate proteins, and the tube was vortexed, and placed on wet ice. It was stored in a −90˜−60° C. refrigerator for biological sample analysis. The concentration of the corresponding compound in the plasma of S-D rats was determined by LC-MS/MS analysis. The corresponding pharmacokinetic parameters were calculated using a non-compartmental model in Pharsight Phoenix 7.0.

[2] = tested on: influenza A virus (H1N1, A/WSN/33); assay: Efficacy on mice, IAV mouse infection model; format: in vivo, Female BALB/c mice; conditions: 15 mpk orally twice a day; for Influenza Virus Titer in lung tissue: 15 mg/kg
From the text: Female BALB/c mice were inoculated with influenza A virus (H1N1, A/WSN/33) by intranasal administration to establish an IAV mouse infection model. The vehicle, Compound III-2 (15 mpk) or oseltamivir phosphate (15 mpk) were orally administered twice a day. Animal weight and survival status were monitored daily during the test, and on the 5th day, some animals were killed to take lung tissue for virus titer detection, and the remaining mice were used for survival rate monitoring. The in vivo anti-influenza virus efficacy of the test compound was determined by virus titer in lung tissue, mouse body weight change and survival rate.

[3] = MDCK cells, A/PR/8/34 (H1N1), 5 days, CCK8, read-out: EC50

SMILES: O=C1c2c(O)c(=O)ccn2N([C@@H]2c3ccccc3SCc3c2ccc(F)c3F)CN1CCSC1CC1 [Compound I-8]
- EC50 [1, 3]: 0.75 nM
- CC50 at 5 days (in vitro): > 1000 nM

SMILES: O=C1c2c(O)c(=O)ccn2N([C@H]2c3ccc(F)cc3CSc3ccccc32)[C@@H]2COCC3(CC3)N12 [II-13]
- EC50 ([1]; MDCK): 0.38 nM
- CC50 at 5 days (in vitro): > 1000 nM

SMILES: O=C1c2c(O)c(=O)ccn2N([C@@H]2c3ccccc3SCc3c2ccc(F)c3F)CN1C1C2CC1C2F (stereo partly shown) [Compound I-66]
- EC50 [1, 3]: 0.58 nM
- CC50 at 5 days (in vitro): > 1000 nM

SMILES: O=C1c2c(O)c(=O)ccn2N([C@@H]2c3ccccc3SCc3cccc(Cl)c32)[C@@H]2COC3(CC3)CN12 [II-22]
- EC50 [1, 3]: 0.36 nM
- CC50 at 5 days (in vitro): > 1000 nM

SMILES: O=C1c2c(O)c(=O)ccn2N([C@H]2c3ccc(F)cc3CSc3ccccc32)CN1C12CC(C1)C2 [Compound I-83]
- EC50 [1, 3]: 0.21 nM
- CC50 at 5 days (in vitro): > 1000 nM

SMILES: O=C1c2c(O)c(=O)ccn2N([C@@H]2c3ccccc3SCc3c2ccc(F)c3F)[C@@H]2COC3(CC3)CN12 [II-6]
- AUC(0-t) (in vivo): 276 ng·h/mL
- Vd (in vivo): 3.12 L/kg
- clearance (in vivo): 13.6 mL/min/kg
- half-life (in vivo): 2.97 h
- EC50 [1, 3]: 0.26 nM
- CC50 at 5 days (in vitro): > 1000 nM

SMILES: C=C1CCN2C(=O)c3c(O)c(=O)ccn3N([C@@H]3c4ccccc4SCc4c3ccc(F)c4F)[C@@H]2C1 [II-65]
- EC50 [1, 3]: 0.45 nM
- CC50 at 5 days (in vitro): > 1000 nM

SMILES: O=C1c2c(O)c(=O)ccn2N([C@@H]2c3ccccc3SCc3cccc(Cl)c32)CN1C12CC(C1)C2 [Compound I-89]
- EC50 [1, 3]: 0.17 nM
- CC50 at 5 days (in vitro): > 1000 nM

SMILES: O=C1c2c(O)c(=O)ccn2N([C@@H]2c3ccccc3SCc3c2ccc(F)c3F)[C@@H]2CC(OC3CC3)CCN12 (stereo partly shown) [II-34]
- EC50 [1, 3]: 0.39 nM
- CC50 at 5 days (in vitro): > 1000 nM

SMILES: COCC1COC[C@@H]2N1C(=O)c1c(O)c(=O)ccn1N2[C@@H]1c2ccccc2SCc2c1ccc(F)c2F (stereo partly shown) [II-8]
- EC50 [1, 3]: 0.47 nM
- CC50 at 5 days (in vitro): > 1000 nM

SMILES: O=C1c2c(O)c(=O)ccn2N([C@H]2c3ccccc3CSc3ccccc32)[C@@H]2COCC3(CC3)N12 [II-1]
- EC50 ([1]; MDCK): 0.45 nM
- CC50 at 5 days (in vitro): > 1000 nM

SMILES: O=C1c2c(O)c(=O)ccn2N([C@@H]2c3ccccc3SCc3c2ccc(F)c3F)[C@@H]2COCC3(CC3)N12 [II-5]
- AUC(0-t) (in vivo): 187 ng·h/mL
- Vd (in vivo): 3.69 L/kg
- clearance (in vivo): 20.9 mL/min/kg
- half-life (in vivo): 2.49 h
- EC50 ([1]; MDCK): 0.22 nM
- CC50 at 5 days (in vitro): > 1000 nM

SMILES: O=C1C2N(CC3CCCN13)C(=O)c1c(O)c(=O)ccn1N2[C@@H]1c2ccccc2SCc2c1ccc(F)c2F (stereo partly shown) [II-101]
- EC50 [1, 3]: 0.94 nM
- CC50 at 5 days (in vitro): > 1000 nM

SMILES: O=C1c2c(O)c(=O)ccn2N([C@H]2c3ccccc3CSc3ccccc32)CN1C1CC2(COC2)C1 [Compound I-10]
- EC50 [1, 3]: 0.7 nM
- CC50 at 5 days (in vitro): > 1000 nM

SMILES: CCOC(=O)C1=C[C@@H](OC(CC)CC)[C@H](NC(C)=O)[C@@H](N)C1 [Oseltamivir phosphate, oseltamivir phosphate, reference compound]
- Body weight change ([2]; infected mice, during the experiment): remained stable
- Survival rate ([2]; infected mice, to the predetermined experimental end point): 100%
- Mean difference of virus titer compared with the solvent group ([2]; mice, 5th day after infection): 3.46 Log 10 (number of plaques per gram of lung tissue)
- Influenza Virus Titer in lung tissue ([2]; mice, 5th day after infection): 3.74 ± 0.5205 Log10 (plaques number/gram of
- Influenza Virus Titer in lung tissue ([2]; mice, 5th day after infection, listed as oseltamivir phosphate): 3.74 Log10 (plaques number/gram of

SMILES: O=C1c2c(O)c(=O)ccn2N([C@H]2c3ccccc3CSc3ccccc32)CN1C1CC2(CCC2)C1 [Compound I-1]
- EC50 [1, 3]: 0.5 nM
- CC50 at 5 days (in vitro): > 1000 nM

SMILES: O=C(O)[C@H]1C2CCC(CC2)[C@@H]1Nc1nc(-c2c[nH]c3ncc(F)cc23)ncc1F [VX-787, reference compound]
- EC50 [1, 3]: 1.4 nM
- CC50 at 5 days (in vitro): > 100 nM

SMILES: O=C1c2c(O)c(=O)ccn2N([C@@H]2c3ccccc3SCc3c2ccc(F)c3F)[C@@H]2COC3(COC3)CN12 [II-7]
- EC50 [1, 3]: 0.93 nM
- CC50 at 5 days (in vitro): > 1000 nM

SMILES: O=C1c2c(O)c(=O)ccn2N([C@H]2c3ccccc3CSc3ccccc32)CN1C1CC2(CC2)C1 [Compound I-9]
- EC50 [1, 3]: 0.4 nM
- CC50 at 5 days (in vitro): > 1000 nM
